Data as given in patent US20130150399A1, “INHIBITORS OF THE UNFOLDED PROTEIN RESPONSE AND METHODS FOR THEIR USE” (The Board of Trustees of the Leland Stanford Junior …, priority 2006, published 2013).

Tested on: 5×-UPRE luciferase reporter (XBP-1s)
Assay: 5×-UPRE luciferase reporter assay, HT1080 cells
Type: cell-based, human
Procedure: HT1080 cells stably expressing the XBP-luciferase construct were grown in 60 mm dishes to 60-70% confluency. Following hypoxia treatment, cells were washed twice with PBS, lysed in 400 μl 1× reporter lysis buffer (RLB) (Promega, Madison Wis.) for 30 min at 24° C. Lysates (100 μl) were mixed with an equal volume of luciferase substrate (Promega), and assayed using a luminometer. For 5×-UPRE-luciferase reporter assays, cells were co-transfected with the appropriate reporter plasmid and a control plasmid (pSV40-beta-gal) using Lipofectamine 2000 (Invitrogen, San Diego, Calif.). Twenty-four hours after transfection, fresh media was added, and cells were treated with Tm or shifted to hypoxia. After treatment, cells were lysed in 1×RLB and analyzed for luciferase activity as described above. Beta-galactosidase activity was determined using the beta-galactosidase enzyme assay system (Promega).
A. XBP-luciferase reporter construct. Firefly luciferase was inserted downstream of the IRE1α splice site in human XBP-1 to enable the conditional translation of luciferase under ER stress in an IRE1α-dependent manner. B. Selective inhibition of the XBP-luciferase reporter by irestatin 9389. HT1080 human fibrosarcoma cells stably expressing the XBP-luciferase reporter or CMV-luciferase were cultured in the presence of Tm (4 μg/ml) and Tg (0.4 μM) and irestatin 9389 at the indicated concentrations. After 24 hours, luciferase activity was analyzed in an automated plate reader. For each cell line, values are expressed as the percent inhibition of the median for Tm/Tg-treated wells, corrected for background. C. Structure of irestatin 9389. […] Values are expressed as the fold increases over uninduced levels. […] Cells were harvested, lysed, and analyzed by immunoblotting with antisera specific for HIF-1α (top), XBP-1s (middle) or actin (bottom). […] Total RNA was analyzed by Northern blotting using radiolabeled probes specific for P58^IPK or DER-1. […]
Since these assays employed a chimeric XBP-luciferase substrate, we next determined whether irestatin 9389 could inhibit the function of endogenous XBP-1s. […]

## Cc1csc(NC(=O)CSc2nc3c(c(C(F)(F)F)c2C#N)CCC3)n1 [Compound 9389]
48 hours of hypoxia (vehicle 170-fold)
  diminution of hypoxia-induced UPRE luciferase response: more than 90%
Cells exposed to both Tm and irestatin 9389
  induction of 5×-UPRE luciferase activity over untreated cells: < 4 fold
